Laboratory results: patent US20070207992A1, “Geldanamycin derivatives and method of use thereof” (Board of Trustees of Michigan State University, priority 2006, published 2007)
Counter-ions that a name gives are not always drawn. Like-named read-outs stand apart in the source and are kept apart here.

Columns and labels:
P. falciparum TM91C235 = experiment: Testing of compounds against P. falciparum strain TM91C235; type: cell-based; settings: Plasmodium falciparum
Description: (§1) Parasitic Lethality: The geldanamycin derivatives were subjected to further testing for lethality to the P. falciparum parasite itself. IC50 values were then obtained as illustrated in Table 1 in Example 3. Samples of the literature compound 17-N-allyl-17-demethoxygeldanamycin was synthesized and tested for killing of parasites. Preferably the drugs are selective for parasitic hsp90 homologs over human hsp90 and have minimal human toxicity. Geldanamycin derivatives of this type have potential for being novel drugs in the treatment of parasitic diseases. The medical community will be able to use these new anti-infective medications alone or in combination with other anti-infective medications. For example, the geldanamycin derivatives of the present invention can be used in combination with chloroquine, since geldanamycin and chloroquine are synergistic inhibitors of Plasmodium falciparum growth as described in Kumar et al. Malaria Journal 2:30 (2003).
(§2) Both parasite strains are chloroquine and pyrimethamine resistant and TM91C235 is also mefloquine resistant.

P. falciparum W2 = experiment: Testing of compounds against P. falciparum strain W2; type: cell-based; settings: Plasmodium falciparum
Description: as §1, §2

[1] = target strain TM91C235 (chloroquine, pyrimethamine and mefloquine resistant), read-out: IC50
[2] = target strain TM91C235 (chloroquine, pyrimethamine and mefloquine resistant), read-out: IC90
[3] = target strain W2 (chloroquine and pyrimethamine resistant), read-out: IC50
[4] = target strain W2 (chloroquine and pyrimethamine resistant), read-out: IC90

Row | IC50 (P. falciparum TM91C235; [1]) | IC90 (P. falciparum TM91C235; [2]) | IC50 (P. falciparum W2; [3]) | IC90 (P. falciparum W2; [4]) | Compound | IC50 (P. falciparum TM91C235) | IC90 (P. falciparum TM91C235) | IC50 (P. falciparum W2; W2) | IC90 (P. falciparum W2; W2)
1 | 2.71 mg/L | 4.02 mg/L | 0.786 mg/L | 2.73 mg/L | CCCC(=O)O[C@H]1/C(C)=C/[C@H](C)[C@@H](O)[C@@H](OC)C[C@H](C)CC2=C(N3CCC3)C(=O)C=C(NC(=O)/C(C)=C/C=C\[C@@H]1OC)C2=O [Compound B, 17-(1-Azetidinyl)-7-butyryl-7-decarbamyl-17-demethoxygeldanamycin] | – | – | – | –
2 | 2.64 mg/L | 3.95 mg/L | 0.875 mg/L | 3.06 mg/L | CO[C@H]1/C=C\C=C(/C)C(=O)NC2=CC(=O)C(N3CCC3)=C(C[C@@H](C)C[C@H](OC)[C@H](O)[C@@H](C)/C=C(\C)[C@@H]1OC(=O)C1CC1)C2=O [Compound C, 17-(1-Azetidinyl)-7-(cyclopropanyl)carbonyl-7-decarbamyl-17-demethoxygeldanamycin] | – | – | – | –
3 | 4.04 mg/L | 8.41 mg/L | 0.958 mg/L | 6.18 mg/L | CO[C@H]1/C=C\C=C(/C)C(=O)NC2=CC(=O)C(N3CCC3)=C(C[C@@H](C)C[C@H](OC)[C@H](O)[C@@H](C)/C=C(\C)[C@@H]1O)C2=O [Compound D, 17-(1-Azetidinyl)-7-decarbamyl-17-demethoxygeldanamycin] | – | – | – | –
4 | 3.03 mg/L | 5.54 mg/L | 0.909 mg/L | 3.74 mg/L | CCC(=O)O[C@H]1/C(C)=C/[C@H](C)[C@@H](O)[C@@H](OC)C[C@H](C)CC2=C(N3CCC3)C(=O)C=C(NC(=O)/C(C)=C/C=C\[C@@H]1OC)C2=O [Compound F, 17-(1-Azetidinyl)-7-decarbamyl-17-demethoxy-7-propionylgeldanamycin] | – | – | – | –
5 | 0.0138 mg/L | 0.0291 mg/L | 0.00163 mg/L | 0.00409 mg/L | OC(c1cc(C(F)(F)F)nc2c(C(F)(F)F)cccc12)C1CCCCN1 (stereo not drawn) [Mefloquine, reference compound] | – | – | – | –

Second part, the compound before the results:

Row | Compound | IC50 (P. falciparum TM91C235; [1]) | IC90 (P. falciparum TM91C235; [2]) | IC50 (P. falciparum W2; [3]) | IC90 (P. falciparum W2; [4]) | IC50 (P. falciparum TM91C235) | IC90 (P. falciparum TM91C235) | IC50 (P. falciparum W2; W2) | IC90 (P. falciparum W2; W2)
6 | CCN(CC)CCCC(C)Nc1ccnc2cc(Cl)ccc12 (stereo not drawn) [Chloroquine, reference compound] | – | – | – | – | 0.125 mg/L | 0.16 mg/L | 0.0297 mg/L | 0.0378 mg/L
7 | CO[C@H]1/C=C\C=C(/C)C(=O)NC2=CC(=O)C(N3CCC3)=C(C[C@@H](C)C[C@H](OC)[C@H](OC(=O)CCCN)[C@@H](C)/C=C(\C)[C@@H]1OC(N)=O)C2=O [Compound A, 11-O-(4-Aminobutyryl)-17-(1-azetidinyl)-17-demethoxygeldanamycin trifluoroacetate] | 1.03 mg/L | 2.53 mg/L | 0.65 mg/L | 1.79 mg/L | – | – | – | –
8 | CO[C@H]1/C=C\C=C(/C)C(=O)NC2=CC(=O)C(N3CCC3)=C(C[C@@H](C)C[C@H](OC)[C@H](O)[C@@H](C)/C=C(\C)[C@@H]1OC(=O)c1ccccc1)C2=O [Compound E, 17-(1-Azetidinyl)-7-benzoyl-7-decarbamyl-17-demethoxygeldanamycin] | – | – | – | – | 4.29 mg/L | 6.07 mg/L | 1.26 mg/L | 5.43 mg/L
9 | CO[C@H]1/C=C\C=C(/C)C(=O)NC2=CC(=O)C(N3CCC3)=C(C[C@@H](C)C[C@H](OC)[C@H](O)[C@@H](C)/C=C(\C)[C@@H]1OC(N)=O)C2=O [Compound G, 17-(1-Azetidinyl)-17-demethoxygeldanamycin] | 0.169 mg/L | 0.346 mg/L | 0.0683 mg/L | 0.208 mg/L | – | – | – | –
